Results as given in US4327114A, “Substituted 1,8-dihydroxy-9-(10H)anthracenones” (Boehringer Ingelheim GmbH, priority 1980, dated 1982).
“Also recorded” adds a separate entry of the source.

Legend:
Solubility remark = format: physicochemical
skin of guinea pigs = experiment: Skin compatibility test on guinea pigs; format: in vivo, guinea pig (Perbright White strain); settings: for Sum of the reactions divided by the number of animals: score 0 no irritation to 3 very strong erythema
Method: Guinea pigs of the Perbright White strain, with a body weight of about 350 gm, were fed with standard guinea pig feed (Altromin 3022) and water ad lib.
During the test, the animals were kept in single cages. The test substances, which were dissolved in a well compatible solvent, were applied to the skin of the animals (diameter of the test area 3.5 cm) daily for 3 weeks, from Monday to Friday. The animals were shaved each Monday, Wednesday and Friday in the early morning, the treatment with the test substances was performed in the early afternoon. Immediately before administration of the substance, the skin reaction was tested. The evaluation was carried out visually, and erythema, edema, and mycosis of the skin were considered.
The following evaluation was made:
2: strong erythema with beginning edema
3: very strong erythema with edema or beginning necrosis.
The numerical sum of the reactions was used for the total evaluation of a group of animals.

[1] = Acute toxicity in the mouse; format: in vivo; settings: in vivo, within 14 days
Method: (§1) The acute toxicity was determined in the mouse and in the rat. Determined was the LD50, i.e. the dose after administration of which 50% of the animals died within 14 days, or it was determined how many of the 10 treated animals died within the period of observation.

mouse = experiment: Acute toxicity in the mouse; format: in vivo; settings: 2000 mg/kg
Method: as §1

skin [2] = settings: literature or prior use; listed as dithranol; cited from earlier work
skin [3] = experiment: Skin compatibility under occlusion, method of Mustakallio; format: in vivo; settings: for concentrations producing discoloration and skin irritations: white vaseline
Method: In a further test, according to the method of Mustakallio, compound A was applied at concentrations of 1, 2, 4, 8, 16, 32 mmols in white vaseline and allowed to remain on the skin for 4 hours under occlusion. Compounds C and K, however, were applied at concentrations of 4, 8, 16, 32, 64, 128 mmols, also in white vaseline, and allowed to remain on the skin for 16 hours under occlusion. […] This means that the novel compounds are more compatible by a factor of at least 64.

[4] = prior use; cited from earlier work
psoriasis = settings: literature or prior use; cited from earlier work
[5] = Penetration and metabolization in the skin in vitro; format: in vitro ADME, pig; settings: thin-layer chromatography; for penetration into the layers of the skin: same carriers
[6] = tested on: skin (forearms of volunteer human test subjects); experiment: Orienting skin compatibility in humans (ointments on forearm); format: in vivo; settings: for discoloration of the skin / skin irritation: 0.44% ointment, 16 hours, doubled to 0.88% after 3 days if no reaction
Method: Ointments, each containing individually 0.44% of compounds […] and K were applied to the forearms of volunteer human test subjects, covered with bandage gauze and allowed to remain on the skin for 16 hours. After 16 hours the ointments were washed off with soap solution, and the skin irritation and discoloration, if any, were evaluated visually and photographed. Then, the test ointments were again administered and allowed to remain on the skin until the next day. Again, the reactions were evaluated and a new treatment was started.

rat = experiment: Acute toxicity in the rat; format: in vivo
Method: as §1

[7] = Acute toxicity in the rat; format: in vivo; settings: in vivo, ip, within 14 days
Method: as §1

guinea pigs = experiment: Sensitizing activity on guinea pigs; format: in vivo, guinea pig (Perbright White strain)
Method: The sensitizing activity was tested 2 weeks after the skin compatibility test with 1:10 to 1:50 of the originally used concentrations behind the ears.

[8] = Stability under light irradiation; format: physicochemical; settings: for decomposition under light: 30 minutes, 400 W high-pressure mercury vapor lamp, in toluene or xylene
Method: Compound C and dithranol (A) in solution (toluene or xylene) were exposed for 30 minutes to a 400 W high-pressure mercury vapor lamp (Type HPM 12, Phillips), where the spectrum of light emission was changed by adding heavy metal salts.

[9] = target: glucose-6-phosphate-dihydrogenase; experiment: Inhibition of glucose-6-phosphate-dihydrogenase after 120 minutes incubation; format: biochemical; settings: 37° C., pH 7.6, REED and MUENCH
Method: The inhibiting effect upon enzymes was determined by measurement of the inhibition of glucose-6-phosphate-dihydrogenase.
The following equilibrium was observed: [drawing 5] (NADP-nicotinamide-adenine-dinucleotide-phosphate). The rate of formation of NADPH is a measure of the enzyme activity; it can be measured by means of the increase in extinction at […] per unit of time.
0.025 ml of glucose-6-phosphate-dihydrogenase were diluted to 10 ml with distilled water (Solution I). 100 mg of nicotinamide-adenine-dinucleotide-phosphate were dissolved in 13 ml of distilled water (Solution II). 47.2 mg of glucose-6-phosphate were dissolved in another 10 ml of distilled water (Solution III). Besides this, a buffer solution (Solution IV) was prepared as follows:
0.28 gm of triethanolamine hydrochloride and 1.461 gm of ethylene-diamine tetraacetic acid disodium salt were dissolved in 1 liter of distilled water, and the solution was adjusted to pH 7.6 with sodium hydroxide. The substance to be tested was dissolved in dimethyl formamide or ethanol (Solution V). Tested end-concentrations: 25, 12.5, 6.25, 3.125, 1.56 and 0.78 μg/ml.
A mixture of 0.1 ml of Solution I, 0.1 ml of Solution II, 2.67 ml of Solution IV and 0.03 ml of Solution V was kept at 37° C. for 120 minutes. After addition of 0.1 ml of Solution III and thorough mixing, the change in extinction was measured photometrically at 366 nm over 3 minutes. The inhibition values were calculated from the average values of 3 measurements (as change of extinction per minute), compared to controls to which the pure solvent was added as inhibitor solution. The ED50 was calculated according to the method of REED and MUENCH from the inhibiting values of the different concentrations. The following table contains the values thus determined: […]

guinea pig = experiment: Photo-sensitization in vivo on the guinea pig; settings: 0.01% alcoholic solution, 3 weeks, 125 W mercury high-pressure lamp 10 minutes
Method: Since some halogenated aromatic substances have a photo-sensitizing activity, the photo-sensitization of compound C was also tested in vivo on the guinea pig.
Guinea pigs were treated for 3 weeks on 5 week-days with a 0.01% alcoholic solution of compound C. After 30 minutes each animal was exposed for 10 minutes to a 125 W mercury high-pressure lamp (ultra violet sun lamp). The irradiation was carried out in such a way that no UV-B erythema appeared.

[10] = Natural color of the substance (UV-absorption, FIG. 1); format: physicochemical; settings: shortwave portion of visible light, beginning at 380 nm
Excerpt: Topically administrable substances which are colored are undesirable for cosmetic reasons and also because the lingerie may become soiled. […] This is also expressed by the optic impression of the preparations. […] This is a further advantage compared with dithranol.

For `CC(C)(C)c1cc(Br)c(O)c2c1Cc1c(Br)cc(Br)c(O)c1C2=O`, the solubility (Solubility remark) was “inadequate solubility”.
For `O=C1c2c(O)cccc2Cc2cccc(O)c21` [Compound A, 1,8-Dihydroxy-9-(10H)anthracenone], the “Sum of the reactions divided by the number of animals” value (“Sum of the reactions divided” for short) (skin of guinea pigs; 0.015%, end of 1st week) was 0.66, the “Sum of the reactions divided” value (skin of guinea pigs; 0.015%, end of 2nd week) was 0.33 and the “Sum of the reactions divided” value (skin of guinea pigs; 0.015%, end of 3rd week) was 0.33. For the same compound, the “Sum of the reactions divided” value (skin of guinea pigs; 0.03%, end of 1st week) was 1.3, the “Sum of the reactions divided” value (skin of guinea pigs; 0.03%, end of 2nd week) was 2.16 and the “Sum of the reactions divided” value (skin of guinea pigs; 0.03%, end of 3rd week) was 2.25. For the same compound, the LD50 at 336 h ([1]; ip) was 2.42 mg/kg, the LD50 at 336 h ([1]; sc.) was 2.22 mg/kg and the “Number of dead animals” value (mouse; p.o.) was 2/10. The “skin irritation and/or discoloration” value (skin [2]) was “strong, irreversible discoloration of skin and lingerie; also recorded: strong skin-irritating activity”, the “concentrations producing discoloration and skin irritations” value (skin [3]; 4 hours of occlusion) was no less than 2 mmols and the “concentrations producing discoloration and skin irritations” value (skin [3]; 16 hours of occlusion) was no less than 1 mmols. For the same compound, the systemic side-effects [4] was “lack of systemic side-effects”, the antipsoriatic activity (psoriasis) was “reliable activity” and the “penetration into the layers of the skin” value [5] was “penetrate to an approximately equal extent”. The “metabolization in the skin” value [5] was “metabolized in a similar manner”, the “discoloration of the skin” value [6] was “brownish-violet discoloration after only the second application” and the skin irritation [6] was “strong skin irritation with erythema”. For the same compound, the “later changes of the treated skin area” value ([6]; ointment test) was “peeled after about one week”, the “Number of dead animals” value (rat; p.o., 2000 mg/kg) was 1/10 and the “Number of dead animals” value (rat; sc., 1000 mg/kg) was 2/10. For the same compound, the LD50 at 336 h [7] was 5.19 mg/kg, the sensitized animals (guinea pigs; 0.03%, tested 2 weeks after skin compatibility test) was 3 out of 12 and the decomposition under light [8] was “nearly completely decomposed”.
In the case of `O=C1c2c(O)ccc(Cl)c2Cc2c(Cl)ccc(O)c21` [Compound C, 4,5-Dichloro-1,8-dihydroxy-9-(10H)anthracenone], the “Sum of the reactions divided” value (skin of guinea pigs; 0.03%, end of 1st week) is reported as 0, the “Sum of the reactions divided” value (skin of guinea pigs; 0.03%, end of 2nd week) is reported as 0 and the “Sum of the reactions divided” value (skin of guinea pigs; 0.03%, end of 3rd week) is reported as 0.04. For the same compound, the “Sum of the reactions divided” value (skin of guinea pigs; 0.045%, end of 1st week) was 0.166, the “Sum of the reactions divided” value (skin of guinea pigs; 0.045%, end of 2nd week) was 0.66 and the “Sum of the reactions divided” value (skin of guinea pigs; 0.045%, end of 3rd week) was 0.41. The “skin compatibility compared with compound A” value (skin of guinea pigs; Table 3) was “considerably more skin-compatible than compound A”, the “ED50, inhibition of incubation after 120 minutes” value [9] was 4.63 µg/mL and the “Number of dead animals” value (mouse; i.p.) was 1/10. The “Number of dead animals” value (mouse; p.o.) was 0/10, the “Number of dead animals” value (mouse; sc.) was 6/10 and the “skin irritations or discolorations” value (skin [3]; 4 to 128 mmols in white vaseline, after 4 and after 16 hours of occlusion) was “no skin irritations or discolorations could be observed”. The “penetration into the layers of the skin” value [5] was “penetrate to an approximately equal extent”, the “metabolization in the skin” value [5] was “metabolized in a similar manner” and the “discoloration of the skin” value [6] was “no skin irritation or discoloration of the skin”. For the same compound, the skin irritation [6] was “no skin irritation”, the “Number of dead animals” value (rat; i.p., 2000 mg/kg) was 0/10 and the “Number of dead animals” value (rat; p.o., 2000 mg/kg) was 0/10. The “Number of dead animals” value (rat; sc., 2000 mg/kg) was 0/10, the photo-sensitizing activity (guinea pig) was “No photo-sensitizing activity could be determined” and the “sensitization” value (guinea pigs; 1:10 to 1:50 of the original concentrations, behind the ears) was “no sensitization”. For the same compound, the decomposition under light [8] was “no decomposition could be determined”, the “chlorination of toluene (radical formation)” value ([8]; gas-chromatographic, sensitivity 0.0001%) was “no chlorination of toluene could be found” and the “UV-absorption / yellow color” value [10] was “significantly less UV-absorption”.
